Reference: PubChem BioAssay (NCI)
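1) Cells in 96-well plates. 2) Compound, 48 h, 5 concentrations. 3) Linear interpolation between surrounding doses. 4) Unreached endpoint = highest concentration. GI50 = concentration required for 50% inhibition of growth. The concentration for full growth arrest is given as TGI.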

Tests used:
Experiment in all cases: NCI tumour cell line growth inhibition, 48 h
[1] = system: SNB-78 CNS
[2] = system: KM20L2 colon
[3] = system: HOP-18 NSCLC
[4] = system: DMS 114 small cell lung
[5] = system: DMS 273 small cell lung
[6] = system: MDA-N
[7] = system: HS 578T breast
[8] = system: MCF7 breast
[9] = system: RXF-631 renal

SMILES | TGI [2] [µM] | TGI [4] [µM] | TGI [5] [µM] | GI50 [7] [µM] | TGI [7] [µM] | GI50 [8] [µM] | TGI [8] [µM] | other results
O=C(/C=C/c1ccccc1Cl)c1ccccc1Cl | 33.3 | 34.8 | 31.1 | – | – | – | – | TGI [1]: 69.2 µM; TGI [3]: 89.2 µM
CC(=O)[O][Hg][c]1c(C)c(C)c(C)c(C)c1C | – | – | – | 0.899 | 3.52 | 0.843 | 2.13 | GI50 [6]: 1.37 µM; TGI [6]: 2.69 µM
COc1cc2c(/C=C3/C(=O)Nc4cccc(Cl)c43)c(Cl)n(Cc3ccccc3)c2cc1C | – | – | – | 4.34 | 66.5 | 3.88 | > 45.3 | –
COc1cccc(NCc2nnc(Nc3ccc(Cl)cc3)c3ccccc23)c1 | – | – | – | 2.9 | 11.5 | 0.938 | 6.4 | –
COc1cc([C@@H]2c3cc4c(cc3C(O[C@@H]3O[C@@H]5CO[C@@H](c6cccs6)OC5[C@H](O)[C@H]3O)C3COC(=O)[C@@H]32)OCO4)cc(OC)c1O (stereo partly drawn) | – | – | – | 0.241 | 5.03 | 0.00975 | 16.5 | –
CN(C)C(=S)/N=c1\ss/c(=N\C(=S)N(C)C)n1-c1ccc2c(c1)OCO2 | > 100 | > 100 | > 100 | – | – | – | – | –
COc1ccc(-n2cc(-c3cc(OC)c(OC)c(OC)c3)[nH]c2=S)cc1OC | – | – | – | > 100 | > 100 | > 100 | > 100 | –
Cc1ccc(C(=O)/C=C/c2ccccc2O)c(C)c1 | > 100 | > 100 | > 100 | – | – | – | – | TGI [1]: > 100 µM
N#CCCN(CCC#N)c1ccc(/C=C2\N=C(CN3C(=O)c4ccccc4C3=O)OC2=O)cc1 | > 100 | > 100 | > 100 | – | – | – | – | TGI [9]: > 100 µM
CC(C)=[CH][Sb]([Br])([CH]=C(C)C)([CH]=C(C)C)[CH]=C(C)C | > 100 | 4.85 | 56.8 | – | – | – | – | GI50 [2]: 13.1 µM; GI50 [4]: 1.61 µM; GI50 [5]: 5.98 µM
Cc1cccc(C(C)(C)C)c1NC(=O)CCc1n[nH]c(=S)o1 | > 100 | > 100 | > 100 | – | – | – | – | TGI [1]: > 100 µM; TGI [3]: > 100 µM
O=C(C[C@@H](C(=O)NCc1cccc(C(F)(F)F)c1)N1C(=O)[C@@H](N2C(=O)OC[C@@H]2c2ccccc2)[C@H]1/C=C/c1ccccc1)NC1CCN(Cc2ccccc2)CC1 | – | – | – | 10.3 | 29.6 | 1.61 | 3.51 | –
C=C1C(=O)O[C@H]2[C@H]1CC/C(COC(=O)/C=C\C(=O)NCc1ccc(Cn3c(=O)sn(-c4ccc(C#N)cc4)c3=O)cc1)=C\CC[C@@]1(C)O[C@@H]21 | – | – | – | 0.987 | 2.79 | – | – | –
CSc1ccc(/C=C2/C[N+](C)(C)C/C(=C/c3ccc(SC)cc3)C2=O)cc1 | – | 21.1 | – | – | – | – | – | TGI [1]: > 100 µM; TGI [3]: 79.2 µM; TGI [9]: > 100 µM
CNC1C(=O)C(C)C(O)(C(CC(C)C(O)/C=C/C=C/CNC(=O)C(C)(C)C(O)\C(C)=C/C=C\C=C\Cc2cnc(C)o2)OC)C12C(=O)OC2COC (stereo not drawn) (tested in a mixture with another compound) | – | – | – | – | > 100 | – | > 84.9 | TGI [6]: 71.4 µM
Cn1cc(C2=C(c3cn(C)c4c(N)cccc34)C(=O)NC2=O)c2ccccc21 | – | – | – | 0.618 | 19 | 0.673 | > 20.9 | –
COc1cc(Cc2cc(OC)c(OC)c(OC)c2)ccc1O | > 100 | > 100 | – | – | – | – | – | TGI [1]: > 100 µM

SMILES | TGI [2] [µM] | TGI [4] [µM] | TGI [5] [µM] | GI50 [7] [µM] | TGI [7] [µM] | GI50 [8] [µM] | TGI [8] [µM] | other results
COc1cc(C(=O)O[C@H](C(N)=O)[C@]2(C)CO2)c2ccccc2c1 | – | – | – | 16.6 | 41 | 27.3 | > 100 | –
CCN(CC)C(=O)C/C(C)=N/NC(=O)c1ccncc1 | > 100 | > 100 | > 100 | – | – | – | – | TGI [1]: > 100 µM
CCOC(=O)NC(=O)c1cn(CCCOC(=O)NCCCCCCNC(=O)OCCCn2c(=O)c(C(=O)NC(=O)OCC)cn(C)c2=O)c(=O)n(C)c1=O | > 100 | > 100 | > 100 | – | – | – | – | TGI [3]: > 100 µM; TGI [9]: > 100 µM
COC(=O)C1=C(c2ccc3c(c2)OCO3)O[C@H](c2ccc3c(c2)OCO3)[C@H]1COC(C)=O | > 100 | > 100 | > 100 | – | – | – | – | TGI [1]: > 100 µM; TGI [3]: > 100 µM
COc1ccc2cc(C(=O)/C=C/c3cccc(OC)c3OC)ccc2c1 | – | – | – | 25.5 | 73.9 | 0.455 | 22.9 | –
NCCCCn1c2c(c3ccccc3c1=O)C(=O)c1ccccc1-2 | – | – | – | 0.538 | 4.75 | < 0.0359 | – | –
COC(=O)CSc1n[nH]c(-c2ccc(O)c([N+](=O)[O-])c2)n1 | > 100 | – | > 100 | – | – | – | – | TGI [9]: > 100 µM
COc1ccc(OC)c(/C=C/NC=O)c1 | > 100 | > 100 | > 100 | – | – | – | – | TGI [1]: > 100 µM; TGI [3]: > 100 µM
CCOC(=O)c1c(C)n(Cc2ccc(OC)cc2)c2c1cc(O)c1[nH]c3c(c12)CCCC3 | – | – | – | 3.26 | 21.8 | 4.97 | 19.8 | –
COc1cc2c3c(n(CCCCl)c(=O)c2cc1OC)-c1ccccc1C3=O | – | – | – | 23.5 | > 100 | 8.9 | > 100 | –
O=C(CCCSc1nc(-c2ccc(Cl)cc2)cc(-c2ccc(Cl)cc2)n1)NO | – | – | – | 4.63 | 22.8 | 1.23 | 12.4 | –
CCCCNC(=O)NS(=O)(=O)c1ccc(N2N=C(c3ccc(C)cc3C)CC2c2ccc(N(C)C)cc2)cc1 (stereo not drawn) | – | – | – | 3.95 | > 100 | 2.63 | > 100 | –
COc1ccc(C(=O)O)c(Cc2cccc3ccccc23)c1 | > 100 | > 100 | > 100 | – | – | – | – | TGI [3]: > 100 µM; TGI [9]: > 100 µM
CNC=O.[O]=[Ge].[O]=[Ge].[O]=[Ge].[O]=[Ge][OH].[O]=[Ge][OH] | > 100 | > 100 | > 100 | – | – | – | – | TGI [1]: > 100 µM; TGI [3]: > 100 µM
O=c1[nH]c(=O)n(C2CC(O)C(CS)O2)cc1F (stereo not drawn) | > 100 | > 100 | – | – | > 100 | – | > 43.5 | TGI [1]: > 100 µM; TGI [6]: > 100 µM; TGI [3]: > 100 µM
COc1cc(Cn2c(-c3ccccc3)cc3c2-c2oncc2CC3)cc(OC)c1OC | – | – | – | 0.51 | > 100 | 0.443 | 22.3 | –
COc1ccc(C2CC(=O)c3c(O)c(OC)c(OC)c(OC)c3O2)c(O)c1 (stereo not drawn) | – | – | – | 0.201 | 48.7 | 0.0462 | 15.7 | –
